Among the data in patent publication US8129434B2, “Benzylphenyl cyclohexane derivatives and methods of use” (Theracos, Inc., priority 2007, dated 2012) are IC50 values, retold here.

In one test the target is T1, human SGLT1 (Homo sapiens, UniProt P13866).
T1 construct: Full-length human SGLT1 cDNA on pDream2.1 expression vector was obtained from GenScript Corporation; host or cells: COS-7 (American Type Culture Collection)
T1 sequence (P13866 1-664): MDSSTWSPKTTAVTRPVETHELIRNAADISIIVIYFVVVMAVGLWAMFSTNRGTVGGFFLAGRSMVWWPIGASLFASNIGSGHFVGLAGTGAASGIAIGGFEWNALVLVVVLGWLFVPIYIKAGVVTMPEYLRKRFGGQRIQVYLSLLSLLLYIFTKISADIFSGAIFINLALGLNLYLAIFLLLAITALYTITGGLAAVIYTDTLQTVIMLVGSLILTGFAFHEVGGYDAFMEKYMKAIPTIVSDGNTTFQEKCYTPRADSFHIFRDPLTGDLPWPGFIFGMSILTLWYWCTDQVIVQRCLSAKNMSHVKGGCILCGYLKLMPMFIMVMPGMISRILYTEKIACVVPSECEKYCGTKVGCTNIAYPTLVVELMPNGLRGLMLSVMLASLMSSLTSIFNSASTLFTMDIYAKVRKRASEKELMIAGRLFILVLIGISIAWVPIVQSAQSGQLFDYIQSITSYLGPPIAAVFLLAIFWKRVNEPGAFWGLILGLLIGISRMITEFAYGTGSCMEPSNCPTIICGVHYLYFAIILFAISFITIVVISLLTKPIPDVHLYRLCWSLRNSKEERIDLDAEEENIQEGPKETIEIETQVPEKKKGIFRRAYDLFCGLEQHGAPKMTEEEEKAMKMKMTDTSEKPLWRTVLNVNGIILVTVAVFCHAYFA
The test can be described thus: Methyl-α-D-[U-14C]glucopyranoside uptake assay, human SGLT1 expressing cells. It is filed as cell-based. The following applies: COS-7 cells transfected with human SGLT1; 25% human serum; 2 h at 37° C.; sodium-dependent uptake. On the procedure: Full-length human SGLT1 cDNA on pDream2.1 expression vector was obtained from GenScript Corporation and propagated in Escherichia coli strain DH5α using Luria-Bertani (LB) medium containing ampicillin. Plasmid DNA was isolated using the QIAGEN Plasmid Midi Kit (QIAGEN Inc.). […] Transfected cells were stored in DMEM containing 10% dimethyl sulfoxide (DMSO) at −80 ° C.
(§1) Cells expressing SGLT1 or SGLT2 were seeded on 96-well ScintiPlate scintillating plates (PerkinElmer, Inc.) in DMEM containing 10% FBS (1×10^5 cells per well in 100 μl medium) incubated at 37° C. under 5% CO2 for 48 h prior to the assay. Cells were washed twice with 150 μl of either sodium buffer (137 mM NaCl, 5.4 mM KCl, 2.8 mM CaCl2, 1.2 mM MgCl2, 10 mM tris(hydroxymethyl)aminomethane/N-2-hydroxyethylpiperazine-N′-ethanesulfonic acid [Tris/Hepes], pH 7.2) or sodium-free buffer (137 mM N-methyl-glucamine, 5.4 mM KCl, 2.8 mM CaCl2, 1.2 mM MgCl2, 10 mM Tris/Hepes, pH 7.2). Test compound in 50 μl each of sodium or sodium-free buffer containing 40 μCi/ml methyl-α-D-[U-^14C]glucopyranoside (Amersham Biosciences/GE Healthcare) and 25% human serum was added per well of a 96-well plate and incubated at 37° C. with shaking for either 2 h (SGLT1 assay) or 1.5 h (SGLT2 assay). Cells were washed twice with 150 μl of wash buffer (137 mM N-methylglucamine, 10 mM Tris/Hepes, pH 7.2) and methyl-α-D-[U-^14C]glucopyranoside uptake was quantitated using a TopCount scintillation counter (PerkinElmer, Inc.). Sodium-dependent glucopyranoside uptake was measured by subtracting the values obtained with sodium-free buffer from those obtained using sodium buffer (average of triplicate determinations).

For another test, the target named is T2, human SGLT2 (Homo sapiens, UniProt P31639).
T2 construct: A full-length cDNA clone expressing human SGLT2 (GenScript Corporation) was subcloned into Hind III and Not I sites of pEAK15 expression vector
T2 sequence (P31639 1-672): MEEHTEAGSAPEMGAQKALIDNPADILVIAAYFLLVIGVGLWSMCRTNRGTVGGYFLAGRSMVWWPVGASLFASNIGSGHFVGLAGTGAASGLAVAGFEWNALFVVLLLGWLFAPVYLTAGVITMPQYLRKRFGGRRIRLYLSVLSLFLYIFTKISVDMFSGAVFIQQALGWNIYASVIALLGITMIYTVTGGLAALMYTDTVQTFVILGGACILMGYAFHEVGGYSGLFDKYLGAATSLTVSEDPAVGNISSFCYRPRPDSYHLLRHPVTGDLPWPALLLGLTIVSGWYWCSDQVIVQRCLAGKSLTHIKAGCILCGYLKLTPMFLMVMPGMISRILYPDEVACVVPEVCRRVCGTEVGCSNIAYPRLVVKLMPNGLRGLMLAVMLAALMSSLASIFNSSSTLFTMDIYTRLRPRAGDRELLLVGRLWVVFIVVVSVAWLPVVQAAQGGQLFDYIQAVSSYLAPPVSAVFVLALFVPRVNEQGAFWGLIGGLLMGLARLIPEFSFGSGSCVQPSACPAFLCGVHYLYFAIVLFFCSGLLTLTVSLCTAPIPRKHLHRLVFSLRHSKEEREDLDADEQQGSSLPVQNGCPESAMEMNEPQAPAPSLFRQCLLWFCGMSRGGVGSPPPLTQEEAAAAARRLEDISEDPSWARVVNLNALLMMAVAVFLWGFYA
In words: Methyl-α-D-[U-14C]glucopyranoside uptake assay, cells stably expressing human SGLT2. The format is cell-based. The conditions noted are these: HEK293.ETN cells stably expressing human SGLT2; 25% human serum; 1.5 h at 37° C.; sodium-dependent uptake.
Excerpt: A full-length cDNA clone expressing human SGLT2 (GenScript Corporation) was subcloned into Hind III and Not I sites of pEAK15 expression vector. Clones harboring the cDNA inserts were identified by restriction analysis.
Plasmid containing human SGLT2 was linearized with Nsi I and purified by agarose gel electrophoresis. Using Lipofectamine 2000 Transfection Reagent (Invitrogen Corporation), DNA was transfected into HEK293.ETN cells and cultured in Dulbecco's Modified Eagle Medium (DMEM) containing 10% fetal bovine serum (FBS) at 37° C. under 5% CO2 for 24 h. Transfectants were selected in the same growth medium supplemented with puromycin (Invitrogen Corporation) for two weeks. Puromycin-resistant cells were recovered and seeded on a fresh 96-well plate (single cell per well) and cultured in the presence of puromycin until cells became confluent. Puromycin-resistant clones were evaluated for SGLT2 activity in the methyl-α-D-[U-^14C]glucopyranoside uptake assay described below.
as §1

The IC50 is the point on the concentration scale where inhibition reaches its midpoint. High values mean weaker potency in that assay, low ones greater potency in that assay. Regarding `C=C1[C@H](CO)[C@@H](O)[C@H](O)[C@@H](O)[C@@H]1c1ccc(Cl)c(Cc2ccc(CC)cc2)c1` [Compound 35, (1R,2R,3S,4S,6R)-4-(4-chloro-3-(4-ethylbenzyl)phenyl)-6-(hydroxymethyl)-5-methylenecyclohexane-1,2,3-triol], the IC50 at human SGLT1 was 1000 to 10000 nM; at human SGLT2, less than 1000 nM.

With `CCc1ccc(Cc2cc([C@H]3[C@H](O)[C@@H](O)[C@H](O)[C@@H](CO)[C@@H]3O)ccc2Cl)cc1` [5 (R = Et), (1R,2R,3S,4R,5R,6S)-4-(4-chloro-3-(4-ethylbenzyl)phenyl)-6-(hydroxymethyl)cyclohexane-1,2,3,5-tetraol], the IC50 at human SGLT1 and against human SGLT2 was less than 1000 nM in each case.

In the case of `CCCc1ccc(Cc2cc([C@H]3[C@H](O)[C@@H](O)[C@H](O)[C@@H](CO)[C@@H]3O)ccc2Cl)cc1` [Compound 11, (1R,2R,3S,4R,5R,6S)-4-(4-chloro-3-(4-propylbenzyl)phenyl)-6-(hydroxymethyl)cyclohexane-1,2,3,5-tetraol], the results for the IC50 against human SGLT1 and against human SGLT2 were 1000 to 10000 nM and less than 1000 nM, respectively.

For `CCc1ccc(Cc2ccccc2O[C@H]2[C@H](O)[C@@H](O)[C@H](O)[C@@H](CO)[C@@H]2O)cc1` [Compound 30, (1R,2S,3R,4R,5S,6R)-4-(2-(4-ethylbenzyl)phenoxy)-6-(hydroxymethyl)cyclohexane-1,2,3,5-tetraol], the IC50 is greater than 10000 nM against human SGLT1 and less than 1000 nM on human SGLT2.

For the compound `OC[C@@H]1[C@@H](O)[C@H](O)[C@@H](O)[C@H](c2ccc(Cl)c(Cc3ccc(C4CCCCC4)cc3)c2)[C@H]1O` [Compound 12, (1R,2R,3S,4R,5R,6S)-4-(4-chloro-3-(4-cyclohexylbenzyl)phenyl)-6-(hydroxymethyl)cyclohexane-1,2,3,5-tetraol], the IC50 on human SGLT1 is greater than 10000 nM; against human SGLT2, less than 1000 nM.

Turning to `OC[C@H]1C=C(c2ccc(Cl)c(Cc3ccc(OCC#CC4CC4)cc3)c2)[C@H](O)[C@@H](O)[C@@H]1O` [Compound 13, (1R,2S,3S,6R)-4-(4-chloro-3-(4-(3-cyclopropylprop-2-ynyloxy)benzyl)phenyl)-6-(hydroxymethyl)cyclohex-4-ene-1,2,3-triol], the IC50 was greater than 10000 nM against human SGLT1 and less than 1000 nM against human SGLT2.

Turning to `CC(=O)c1ccc(Cc2cc([C@H]3[C@H](O)[C@@H](O)[C@H](O)[C@@H](CO)[C@@H]3O)ccc2Cl)cc1` [Compound 39, 1-(4-(2-chloro-5-((1R,2S,3R,4R,5S,6R)-2,3,4,6-tetrahydroxy-5-(hydroxymethyl)cyclohexyl)benzyl)phenyl)ethanone], the values for the IC50 against human SGLT1 and against human SGLT2 were 1000 to 10000 nM and less than 1000 nM, respectively.

`CCOc1ccc(Cc2cc([C@H]3[C@H](O)[C@@H](O)[C@H](O)[C@@H](CO)[C@@H]3O)ccc2Cl)cc1` [Compound 9, (1R,2R,3S,4R,5R,6S)-4-(4-chloro-3-(4-ethoxybenzyl)phenyl)-6-(hydroxymethyl)cyclohexane-1,2,3,5-tetraol]: the IC50 against human SGLT1 is 1000 to 10000 nM; on human SGLT2, less than 1000 nM.

On to `CCc1ccc(Cc2cc([C@H]3[C@H](O)[C@@H](O)[C@H](O)[C@@H](CO)C34CC4)ccc2Cl)cc1` [Compound 37, (4S,5S,6R,7R,8R)-4-(4-chloro-3-(4-ethylbenzyl)phenyl)-8-(hydroxymethyl)spiro[2.5]octane-5,6,7-triol], for which the IC50 against human SGLT1 was 1000 to 10000 nM; at human SGLT2, less than 1000 nM.

Regarding `CC(O)c1ccc(Cc2cc([C@H]3[C@H](O)[C@@H](O)[C@H](O)[C@@H](CO)[C@@H]3O)ccc2Cl)cc1` (stereo partly drawn) [Compound 40, (1R,2R,3S,4R,5R,6S)-4-(4-chloro-3-(4-(1-hydroxyethyl)benzyl)phenyl)-6-(hydroxymethyl)cyclohexane-1,2,3,5-tetraol], the IC50 at human SGLT1 is 1000 to 10000 nM; against human SGLT2 it was less than 1000 nM.

Regarding `OC[C@@H]1[C@@H](O)[C@H](O)[C@@H](O)[C@H](c2ccc(Cl)c(Cc3ccc(C4CC4)cc3)c2)[C@H]1O` [Compound 10, (1R,2R,3S,4R,5R,6S)-4-(4-chloro-3-(4-cyclopropylbenzyl)phenyl)-6-(hydroxymethyl)cyclohexane-1,2,3,5-tetraol], the IC50 against human SGLT1 and at human SGLT2 was less than 1000 nM in each case.

For `CCc1ccc(Cc2cc([C@H]3[C@H](O)[C@@H](O)[C@H](O)[C@@H](COC(C)=O)[C@@H]3O)ccc2Cl)cc1` [Compound 17, ((1S,2R,3R,4S,5R,6R)-3-(4-chloro-3-(4-ethylbenzyl)phenyl)-2,4,5,6-tetrahydroxycyclohexyl)methyl acetate], the figures for the IC50 against human SGLT1 and against human SGLT2 were 1000 to 10000 nM and less than 1000 nM, respectively.
